ChEMBL document CHEMBL2057208, “Benzoylbenzimidazole-based selective inhibitors targeting Cryptosporidium parvum and Toxoplasma gondii calcium-dependent protein kinase-1” (Bioorg Med Chem Lett, 2012)
Active and inactive are the calls of the source. The calls are words filed in the database; no cut-off is given here.

Columns and labels:
[1] = tested on: Cryptosporidium parvum; assay: Antiparasitic activity against Cryptosporidium parvum up to 1 uM; assay type: functional, organism-based
[2] = tested on: Toxoplasma gondii; assay: Antiparasitic activity against Toxoplasma gondii up to 1 uM; assay type: functional, organism-based
[3] = biological target: Tyrosine-protein kinase ABL1 (Homo sapiens, UniProt P00519); assay: Inhibition of human ABL
[4] = biological target: Proto-oncogene tyrosine-protein kinase Src (Homo sapiens, UniProt P12931); assay: Inhibition of human SRC
[5] = Inhibition of Cryptosporidium parvum CDPK1
[6] = biological target: T1, Calmodulin-domain protein kinase 1 (Toxoplasma gondii, UniProt Q9BJF5); assay: Inhibition of Toxoplasma gondii CDPK1
T1 sequence (Q9BJF5 whole entry): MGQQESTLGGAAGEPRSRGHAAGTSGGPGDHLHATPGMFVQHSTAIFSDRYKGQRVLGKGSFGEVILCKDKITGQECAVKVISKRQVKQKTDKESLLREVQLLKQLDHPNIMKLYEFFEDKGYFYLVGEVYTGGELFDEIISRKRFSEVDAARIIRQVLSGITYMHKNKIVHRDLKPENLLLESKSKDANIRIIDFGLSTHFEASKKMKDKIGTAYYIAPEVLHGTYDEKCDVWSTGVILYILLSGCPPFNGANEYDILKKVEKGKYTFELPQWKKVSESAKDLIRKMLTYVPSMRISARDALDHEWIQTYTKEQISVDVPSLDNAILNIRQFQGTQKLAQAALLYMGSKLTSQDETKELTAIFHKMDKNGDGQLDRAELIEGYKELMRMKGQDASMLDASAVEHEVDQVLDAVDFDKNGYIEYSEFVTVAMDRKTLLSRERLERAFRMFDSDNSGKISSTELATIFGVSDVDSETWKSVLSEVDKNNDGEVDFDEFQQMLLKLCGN

[7] = cells; conditions: Homo sapiens, CRL8155
[8] = tested on: HL-60; assay: cells; conditions: Homo sapiens

Proto-oncogene tyrosine-protein kinase Src, sequence (P12931 2-536 limits assumed): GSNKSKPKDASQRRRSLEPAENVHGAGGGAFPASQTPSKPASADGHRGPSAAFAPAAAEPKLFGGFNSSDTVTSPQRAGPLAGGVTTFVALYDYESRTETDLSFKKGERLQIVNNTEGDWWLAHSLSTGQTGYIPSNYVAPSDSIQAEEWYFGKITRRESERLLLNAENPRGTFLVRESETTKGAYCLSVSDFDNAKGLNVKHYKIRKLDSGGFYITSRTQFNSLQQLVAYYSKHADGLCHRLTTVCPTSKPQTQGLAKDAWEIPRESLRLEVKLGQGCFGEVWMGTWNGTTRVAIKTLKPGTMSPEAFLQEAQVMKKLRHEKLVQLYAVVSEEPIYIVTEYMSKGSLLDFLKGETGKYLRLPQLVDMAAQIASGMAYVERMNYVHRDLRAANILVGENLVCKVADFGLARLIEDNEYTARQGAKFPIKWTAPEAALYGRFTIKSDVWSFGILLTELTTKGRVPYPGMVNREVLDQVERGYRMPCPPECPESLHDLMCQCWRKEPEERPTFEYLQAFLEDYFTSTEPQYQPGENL
Tyrosine-protein kinase ABL1, sequence (P00519 whole entry): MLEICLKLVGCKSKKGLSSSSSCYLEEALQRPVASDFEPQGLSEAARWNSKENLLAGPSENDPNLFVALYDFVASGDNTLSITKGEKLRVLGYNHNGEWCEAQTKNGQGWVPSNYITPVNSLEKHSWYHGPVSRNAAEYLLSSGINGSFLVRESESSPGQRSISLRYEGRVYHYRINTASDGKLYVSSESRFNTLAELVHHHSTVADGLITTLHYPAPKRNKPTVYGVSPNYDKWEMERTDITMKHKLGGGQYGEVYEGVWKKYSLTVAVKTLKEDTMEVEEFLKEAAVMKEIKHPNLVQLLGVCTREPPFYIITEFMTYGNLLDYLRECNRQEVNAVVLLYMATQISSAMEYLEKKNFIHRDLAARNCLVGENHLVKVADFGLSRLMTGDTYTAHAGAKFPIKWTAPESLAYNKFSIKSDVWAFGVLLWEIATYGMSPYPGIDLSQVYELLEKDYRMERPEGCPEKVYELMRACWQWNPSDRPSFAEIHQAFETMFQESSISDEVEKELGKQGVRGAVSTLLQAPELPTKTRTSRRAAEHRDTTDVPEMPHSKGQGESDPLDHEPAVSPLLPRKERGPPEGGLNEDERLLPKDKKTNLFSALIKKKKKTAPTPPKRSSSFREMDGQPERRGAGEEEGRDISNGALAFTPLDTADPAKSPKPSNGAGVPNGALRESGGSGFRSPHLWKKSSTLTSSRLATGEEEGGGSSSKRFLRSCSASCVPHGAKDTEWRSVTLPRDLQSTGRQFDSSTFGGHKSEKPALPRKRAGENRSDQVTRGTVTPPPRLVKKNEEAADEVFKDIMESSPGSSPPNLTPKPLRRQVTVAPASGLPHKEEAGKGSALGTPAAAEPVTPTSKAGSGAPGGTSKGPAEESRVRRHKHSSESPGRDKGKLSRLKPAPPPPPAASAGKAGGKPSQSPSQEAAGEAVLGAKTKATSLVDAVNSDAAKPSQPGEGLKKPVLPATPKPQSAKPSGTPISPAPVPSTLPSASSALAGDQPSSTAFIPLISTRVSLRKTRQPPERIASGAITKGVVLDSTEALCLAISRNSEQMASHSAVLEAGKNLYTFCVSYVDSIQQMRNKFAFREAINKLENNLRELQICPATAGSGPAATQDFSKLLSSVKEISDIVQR

Structure (SMILES)	IC50 [3] [nM]	IC50 [4] [nM]	IC50 [5] [nM]	EC50 [7] [nM]	EC50 [8] [nM]	Activity [1]	Activity [2]	IC50 [6] [nM]
Nc1nc2ccc(C(=O)c3ccccc3)cc2n1CC[C@@H]1CCCN1	> 10000	> 10000	30	> 30000	> 30000	inactive	inactive	29
O=C(NCCO)Nc1nc2ccc(C(=O)c3ccccc3)cc2[nH]1	–	–	–	–	–	–	–	130
CN1CCN(CCCn2c(N)nc3ccc(C(=O)c4ccccc4)cc32)CC1	–	–	170	> 30000	> 30000	inactive	inactive	180
Nc1nc2ccc(C(=O)c3ccccc3)cc2n1CCc1ccccn1	–	–	830	> 30000	> 30000	inactive	inactive	260
O=C(CC1CCNCC1)Nc1nc2ccc(C(=O)c3ccccc3)cc2[nH]1	–	–	120	> 30000	> 30000	inactive	inactive	60
O=C(c1ccccc1)c1ccc2nc(NC(=O)[C@@H]3CCCN3)[nH]c2c1	–	–	130	> 30000	> 30000	inactive	inactive	160
Nc1nc2ccc(C(=O)c3ccccc3)cc2n1CCN1CCCCC1	–	–	300	> 30000	> 30000	inactive	inactive	160
COC(=O)Nc1nc2ccc(C(=O)c3ccccc3)cc2[nH]1 [MEBENDAZOLE]	5000	> 10000	–	–	–	–	–	670
CC(C)Cn1c(N)nc2ccc(C(=O)c3ccccc3)cc21	–	–	230	> 30000	> 30000	inactive	inactive	67
CN1CCN(CCn2c(N)nc3ccc(C(=O)c4ccccc4)cc32)CC1	> 10000	> 10000	36	> 30000	> 30000	inactive	inactive	43
Nc1nc2ccc(C(=O)c3ccccc3)cc2n1C[C@H]1CCNC1	–	–	120	> 30000	> 30000	inactive	inactive	120
CN1CCC[C@@H]1Cn1c(N)nc2ccc(C(=O)c3ccccc3)cc21	–	–	790	> 30000	> 30000	inactive	inactive	660
N[C@@H](Cc1c[nH]cn1)C(=O)Nc1nc2ccc(C(=O)c3ccccc3)cc2[nH]1	–	–	320	> 30000	> 30000	inactive	inactive	140
Nc1nc2ccc(C(=O)c3ccccc3)cc2n1CCN1CCOCC1	–	–	390	> 30000	> 30000	inactive	inactive	220
Nc1nc2ccc(C(=O)c3ccccc3)cc2n1CCc1ccc(F)cc1	–	–	950	> 30000	> 30000	inactive	inactive	190
Nc1nc2ccc(C(=O)c3ccccc3)cc2n1CC[C@H]1CCCN1	–	–	95	> 30000	> 30000	inactive	inactive	65
COC(=O)Nc1nc2ccc(C(O)c3ccccc3)cc2[nH]1 (stereo not given)	–	–	> 3000	–	–	–	–	> 3000
NCCC(=O)Nc1nc2ccc(C(=O)c3ccccc3)cc2[nH]1	–	–	130	> 30000	> 30000	inactive	inactive	180
CC(C)(C)Cn1c(N)nc2ccc(C(=O)c3ccccc3)cc21	–	–	130	> 30000	> 30000	inactive	inactive	63
O=C(NCCC1CCCNC1)Nc1nc2ccc(C(=O)c3ccccc3)cc2[nH]1 (stereo not given)	–	–	160	> 30000	> 30000	inactive	inactive	120

More lines, main results first:

IC50 [3] [nM]	IC50 [4] [nM]	IC50 [5] [nM]	EC50 [7] [nM]	EC50 [8] [nM]	Structure (SMILES)	Activity [1]	Activity [2]	IC50 [6] [nM]
> 10000	> 10000	–	> 30000	> 30000	Nc1nc2ccc(C(=O)c3ccccc3)cc2n1CC1CCNCC1	inactive	inactive	–
–	> 10000	600	> 30000	> 30000	Nc1nc2ccc(C(=O)c3ccccc3)cc2[nH]1	inactive	inactive	230
–	–	110	> 30000	> 30000	O=C(CCC1CCNCC1)Nc1nc2ccc(C(=O)c3ccccc3)cc2[nH]1	inactive	inactive	41
–	–	260	> 30000	> 30000	Nc1nc2ccc(C(=O)c3ccccc3)cc2n1C[C@@H]1CCCN1	inactive	inactive	410
–	–	260	> 30000	> 30000	CN1CCC(Cn2c(N)nc3ccc(C(=O)c4ccccc4)cc32)CC1	inactive	inactive	150
–	–	> 3000	> 30000	> 30000	O=C(c1ccccc1)c1ccc2nc(NCCC3CCCNC3)[nH]c2c1 (stereo not given)	inactive	inactive	> 3000
–	–	180	> 30000	> 30000	O=C(NCCO)Nc1nc2cc(C(=O)c3ccccc3)ccc2[nH]1	inactive	inactive	–
–	–	91	> 30000	> 30000	NCCCC(=O)Nc1nc2ccc(C(=O)c3ccccc3)cc2[nH]1	inactive	inactive	69
> 10000	> 10000	26	> 30000	> 30000	CN1CCC(CCn2c(N)nc3ccc(C(=O)c4ccccc4)cc32)CC1	inactive	inactive	30
–	–	71	> 30000	> 30000	CN1CCC[C@H]1CCn1c(N)nc2ccc(C(=O)c3ccccc3)cc21	inactive	inactive	68
–	–	> 3000	> 30000	> 30000	O=C(c1ccccc1)c1ccc2nc(NCCO)[nH]c2c1	inactive	inactive	> 3000
–	–	1410	> 30000	> 30000	N[C@@H](Cc1ccc(O)cc1)C(=O)Nc1nc2ccc(C(=O)c3ccccc3)cc2[nH]1	inactive	inactive	520
100	–	180	> 30000	> 30000	O=C(NCCC1CCNCC1)Nc1nc2ccc(C(=O)c3ccccc3)cc2[nH]1	inactive	inactive	130
–	–	870	> 30000	> 30000	Nc1nc2ccc(C(=O)c3ccccc3)cc2n1C[C@H]1CCCN1	inactive	inactive	1000
–	–	590	> 30000	> 30000	O=C(NCCCCO)Nc1nc2ccc(C(=O)c3ccccc3)cc2[nH]1	inactive	inactive	380
–	–	920	> 30000	> 30000	COC(=O)Nc1nc2cc(C(=O)c3ccccc3)ccc2[nH]1 [MEBENDAZOLE]	inactive	inactive	–
–	> 10000	860	> 30000	> 30000	NCCC(=O)Nc1nc2ccc(C(=O)c3ccccc3)cc2n1CC1CCNCC1	inactive	inactive	570
–	–	150	> 30000	> 30000	NCCCCNC(=O)Nc1nc2ccc(C(=O)c3ccccc3)cc2[nH]1	inactive	inactive	140
–	–	82	> 30000	> 30000	O=C(CCCC1CCNCC1)Nc1nc2ccc(C(=O)c3ccccc3)cc2[nH]1	inactive	inactive	18
–	–	72	> 30000	> 30000	NCCCCCCC(=O)Nc1nc2ccc(C(=O)c3ccccc3)cc2[nH]1	inactive	inactive	22
